In patent US20180353603A1, “Combination therapy including tumor associated antigen binding antibodies” (CT Atlantic Ltd., priority 2011, published 2018):

Test system: metastatic melanoma
Experiment: Clinical course of patient ZH311 after NY-ESO-1 vaccination and Ipilimumab
Type: in vivo
Text: A patient ZH311 was diagnosed in 2001 with metastatic melanoma. The tumor expressed NY-ESO-1 and was serum-positive for NY-ESO-1.
Survival time after treatment with Ipilimumab was 3 years.

Ipilimumab: anti-CTLA4 antagonistic antibody
survival time after treatment with Ipilimumab (patient ZH311): 3 years
course of disease (patient ZH311, Ipilimumab starting in 2007 after NY-ESO-1 vaccination): stabilized course of disease
overall survival time (patient ZH311, since diagnosis 2001, NY-ESO-1 vaccination then Ipilimumab, peer group median 10 months): 10 years
